Literature values in patent US9555118B2, “Robust controlled-release peptide formulations” (CAMURUS AB, priority 2011, dated 2017).
*1 amine or outer side, *2 acyl side, *3 side chain or, on linkers, in order; H or OH if unused. Where a SMILES comes first, the peptide text is derived from it. Side-chain parts run from the residue outwards. [ ]: non-standard residue; d: D form. The star is where a group is joined. Ethylenediamine = C(CN[*:2])N[*:1]; Hyp = O=C(O)[C@@H]1C[C@@H](O)CN1; Phg = N[C@H](C(=O)O)c1ccccc1; CO = O=C([*:1])[*:2]; Bn = c1ccc(C*)cc1

Legend:
[1] = tested on: somatostatin receptors (SSTR1-SSTR5)
[2] = single subcutaneous dose, human plasma

C[C@@H](O)[C@@H]1NC(=O)[C@H](CCCCN)NC(=O)[C@@H](Cc2c[nH]c3ccccc23)NC(=O)[C@H](Cc2ccccc2)NC(=O)[C@@H](NC(=O)[C@H](N)Cc2ccccc2)CSSC[C@@H](C(=O)N[C@H](CO)[C@@H](C)O)NC1=O [Octreotide, D-Phe-Cys-Phe-D-Trp-Lys-Thr-Cys-Thr-ol (2-7 disulphide bridge)]
Somatostatin receptor selectivity [1]: high selectivity for SSTR2 and SSTR5 | Terminal half-life (in vivo): around 1.7 hours

NCCCC[C@@H]1NC(=O)[C@@H](Cc2c[nH]c3ccccc23)NC(=O)[C@H](c2ccccc2)NC(=O)[C@@H]2C[C@@H](OC(=O)NCCN)CN2C(=O)[C@H](Cc2ccccc2)NC(=O)[C@H](Cc2ccc(OCc3ccccc3)cc2)NC1=O [Pasireotide] (cyclo([Hyp]([CO-Ethylenediamine])[Phg][dW]KY(Bn)F))
Somatostatin receptor affinity [1]: high affinity for somatostatin receptor subtypes sstr1,2,3 and sstr5 | Initial half-life following the peak [2]: 2 to 3 h

Ala-Gly-Cys-Lys-Asn-Phe-Phe-Trp-Lys-Thr-Phe-Thr-Ser-Cys [SST-14]
Somatostatin receptor affinity [1]: equally high affinity | Biological half-life (natural SST-14): 1-3 minutes
